These results are taken from US7052850B2, “Isolated human EDG-4 receptor” (priority 1997, dated 2006).

Holding throughout (format): cell-based
One experiment has as its target rat EDG-4 (Rattus norvegicus, UniProt P47752). In words: IL-8 response in COS-1 cells transfected with rat EDG-4 expression plasmid. The arrangement: transient transfection with a eukaryotic expression vector expressing full-length rat edg-4 cDNA; expressed in transfected cells. The note with it: COS-1, EDG-4 expression plasmid; 5 μm S1P overnight.
The next experiment deals with T1, EDG-2 (Homo sapiens, UniProt Q92633).
T1 construct: expressed in transfected cells; host or cells: 293-EBNA
In words: NF-κB reporter in 293-EBNA cells, EDG-2. The note with it: 10 μM LPA overnight. From the text:
(§1) LPA, like S1P, is abundant in serum, but not plasma. Moreover, LPA is produced as a consequence of phospholipase A2 with or without the contribution of phospholipase D (depending on the phospholipid substrate). […] To date we have identified three subtypes of edg receptors that respond to LPA as an agonist. These are EDG-2, […] (referred to also as LPA1, LPA2 and LPA3, respectively (Chun, J, Contos, JJA and Munroe, DG. 1998. A growing family of receptor genes for lysophophatidid acid (LPA) and other lyso-phospholipids. Cell Biochem Biophys (in press)). The EDG-5 receptor is set out in co-pending U.S. application Ser. No. 08/997,803 to MUNROE et al., incorporated herein to reference and the amino acid sequence and cDNA sequence for the EDG-6 receptor is set out in FIGS. 21 and 22, respectively. To determine whether these receptors might mediate inflammatory responses, each was cotransfected separately with SRE, NF-κB or AP-1 reporter genes. […] This transcription factor, like NF-κB has been implicated in inflammatory and neoplastic signal transduction, though the gene targets of its action are largely distinct from those of NF-κB (Adcock I M. 1997. Transcription factors as activators of gene transcription; AP-1 and NF-κB. Monaldi Arch Chest Dis 52:178–186. Review). […]

The target of a further experiment is T2, EDG-6 (Homo sapiens, UniProt Q9HBW0).
T2 construct: expressed in transfected cells; host or cells: 293-EBNA
In words: SRE reporter in 293-EBNA cells, EDG-6. The note with it: 10 μM LPA.
Excerpt: as §1

T1 sequence (Q92633 whole entry): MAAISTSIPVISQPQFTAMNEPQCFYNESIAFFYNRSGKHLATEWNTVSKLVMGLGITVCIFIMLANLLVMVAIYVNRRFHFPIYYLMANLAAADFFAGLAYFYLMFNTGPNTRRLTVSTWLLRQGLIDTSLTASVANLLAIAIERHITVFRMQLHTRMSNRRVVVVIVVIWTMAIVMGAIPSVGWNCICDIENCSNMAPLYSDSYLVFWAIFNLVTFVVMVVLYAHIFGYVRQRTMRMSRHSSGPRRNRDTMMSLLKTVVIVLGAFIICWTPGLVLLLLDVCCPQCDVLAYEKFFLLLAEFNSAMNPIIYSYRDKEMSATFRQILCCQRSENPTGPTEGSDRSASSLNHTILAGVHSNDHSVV
T2 sequence (Q9HBW0 with tags, fused parts or gaps): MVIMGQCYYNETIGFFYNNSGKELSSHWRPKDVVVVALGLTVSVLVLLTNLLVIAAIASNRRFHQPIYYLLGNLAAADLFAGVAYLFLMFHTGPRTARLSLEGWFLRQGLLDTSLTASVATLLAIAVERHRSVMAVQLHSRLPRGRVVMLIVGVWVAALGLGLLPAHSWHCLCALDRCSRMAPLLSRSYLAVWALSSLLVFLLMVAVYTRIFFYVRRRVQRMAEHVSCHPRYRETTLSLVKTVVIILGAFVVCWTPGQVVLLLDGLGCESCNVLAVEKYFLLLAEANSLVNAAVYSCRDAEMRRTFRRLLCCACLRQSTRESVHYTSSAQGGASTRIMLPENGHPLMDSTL
rat EDG-4, sequence (P47752 whole entry): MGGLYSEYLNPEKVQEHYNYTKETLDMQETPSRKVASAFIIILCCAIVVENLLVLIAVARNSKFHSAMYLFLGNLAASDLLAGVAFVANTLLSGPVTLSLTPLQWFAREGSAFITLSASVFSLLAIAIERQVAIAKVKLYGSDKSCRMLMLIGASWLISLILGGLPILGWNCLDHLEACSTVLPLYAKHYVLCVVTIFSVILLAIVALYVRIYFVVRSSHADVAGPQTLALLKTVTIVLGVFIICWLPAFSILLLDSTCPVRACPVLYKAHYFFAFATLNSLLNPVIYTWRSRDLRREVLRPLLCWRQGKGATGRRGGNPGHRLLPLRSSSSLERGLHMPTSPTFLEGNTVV

For the molecule `CCCCCCCCCCCCC/C=C/[C@@H](O)[C@@H](N)COP(=O)(O)O` [S1P, sphingosine 1-phosphate], the “increase in IL-8 release compared to untreated cells” value at rat EDG-4 turned out to be 2 fold.

Take lysophosphatidic acid [LPA]: the “activation of the NF-κB reporter” value at EDG-2 is given as 3–4 fold. Besides, the “induction of the SRE reporter” value on EDG-6 is on record as “strongly induced”.
